Here are results for twelve molecules from ChEMBL document CHEMBL5223100, “Homobivalent, Trivalent, and Covalent PROTACs: Emerging Strategies for Protein Degradation” (J Med Chem, 2022).

The target in series [1] is Androgen receptor (Homo sapiens) (UniProt P10275). The series is described as follows: Induction of AR degradation in human 22Rv1 cells assessed as maximum degradation at 10 uM after 8 hrs relative to control. It counts as cell-based.
Series [2] deals with A549. As to the kind of experiment: Antiproliferative activity against human A549 cells. It counts as functional, cell-based.
Series [3] has as its system HCT-116. The series is described as follows: Antiproliferative activity against human HCT-116 cells. It counts as functional, cell-based.
The target in series [4] is E3 ubiquitin-protein ligase Mdm2 (Homo sapiens, UniProt Q00987). As to the kind of experiment: Displacement of p53 from human MDM2 by HTRF assay. (In general: Time-resolved FRET reads energy transfer from a long-lived donor to a nearby acceptor.)
Series [5] is described as follows: AUC in mouse. It is filed as ADME, organism-based. To be noted: in vivo.
For series [6], the system named is A549. The series is described as follows: Antitumor activity against human A549 cells xenografted model assessed as tumor growth inhibition at 30 mg/kg. It is filed as functional. To be noted: read-out: TGI. In general terms: Xenograft models place foreign cells or tissue in a host animal.
Series [7] can be described thus: Half life in mouse. It counts as ADME, organism-based. To be noted: in vivo.
In series [8] the test system is HCT-116. As to the kind of experiment: Antiproliferative activity against p53 knockout human HCT-116 cells. It counts as functional, cell-based.
A further series has as its system MV4-11. The series is described as follows: Antiproliferative activity against human MV4-11 cells.
Series [9] addresses ALK tyrosine kinase receptor (Homo sapiens) (UniProt Q9UM73). The series is described as follows: Induction of ALK degradation in human SU-DHL-1 cells assessed as maximum degradation at 30 nM after 12 hrs relative to control. It is filed as cell-based.
A further series concerns SU-DHL-1. The series is described as follows: Antiproliferative activity against human SU-DHL-1 cells. It is filed as functional, cell-based.
The subject of another series is Huh-7. As to the kind of experiment: Antiproliferative activity against human Huh-7 cells. It is filed as functional, cell-based.
Another series has as its system HepG2. The series is described as follows: Antiproliferative activity against human HepG2 cells. It is filed as functional, cell-based.
Series [10] deals with Transcription intermediary factor 1-alpha (Homo sapiens, UniProt O15164). As to the kind of experiment: Inhibition of His-tagged TRIM24 (unknown origin) expressed in Escherichia coli BL21(DE3)pLysS competent cells using biotinylated-H3K23ac peptide as substrate incubated for 30 mins by Alphascreen assay. (In general: Bead proximity is the source of the signal in Alpha formats.)

Series [11] addresses Transcription intermediary factor 1-alpha (Homo sapiens) (UniProt O15164). The series is described as follows: Induction of TRIM24 degradation in HEK293FT cells assessed as maximum degradation at 5 uM relative to control. It counts as cell-based.
Series [12] deals with T1, Tyrosine-protein kinase BTK (Homo sapiens, UniProt Q06187). The series is described as follows: Induction of BTK degradation in human MINO cells. It is filed as cell-based.
The target in series [13] is T1, Tyrosine-protein kinase BTK. As to the kind of experiment: Induction of BTK degradation in human MINO cells assessed as maximum degradation relative to control. It is filed as cell-based.
Series [14] has as its target ALK tyrosine kinase receptor (Homo sapiens) (UniProt Q9UM73). The series is described as follows: Induction of ALK degradation in human SU-DHL-1 cells assessed as maximum degradation at 300 nM after 12 hrs relative to control. It counts as cell-based.
For another series, the system named is MCF7. The series is described as follows: Antitumor activity against human MCF7 cells xenografted in mouse assessed as tumor growth inhibition. It counts as functional.
Series [15] addresses T1, Tyrosine-protein kinase BTK. As to the kind of experiment: Induction of BTK degradation in human Ramos cells assessed as maximum degradation at 300 nM relative to control. It is filed as cell-based.
Series [16] deals with T2, von Hippel-Lindau disease tumor suppressor (Homo sapiens, UniProt P40337). As to the kind of experiment: Binding affinity to human VHL by isothermal calorimetric assay.
Target sequence in this assay (P40337 whole entry): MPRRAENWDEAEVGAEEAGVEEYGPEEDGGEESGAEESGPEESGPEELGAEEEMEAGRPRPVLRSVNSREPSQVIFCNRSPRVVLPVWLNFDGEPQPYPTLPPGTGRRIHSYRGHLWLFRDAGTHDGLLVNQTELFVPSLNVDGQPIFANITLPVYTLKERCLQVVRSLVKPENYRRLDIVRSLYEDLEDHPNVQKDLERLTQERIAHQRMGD
For series [17], the target named is T2, von Hippel-Lindau disease tumor suppressor. The series is described as follows: Induction of pVHL30 degradation in human HeLa cells incubated for 4 hrs. It counts as cell-based.

pIC50, pKd, pKi: −log10 of the molar value.

T1 sequence (Q06187 whole entry): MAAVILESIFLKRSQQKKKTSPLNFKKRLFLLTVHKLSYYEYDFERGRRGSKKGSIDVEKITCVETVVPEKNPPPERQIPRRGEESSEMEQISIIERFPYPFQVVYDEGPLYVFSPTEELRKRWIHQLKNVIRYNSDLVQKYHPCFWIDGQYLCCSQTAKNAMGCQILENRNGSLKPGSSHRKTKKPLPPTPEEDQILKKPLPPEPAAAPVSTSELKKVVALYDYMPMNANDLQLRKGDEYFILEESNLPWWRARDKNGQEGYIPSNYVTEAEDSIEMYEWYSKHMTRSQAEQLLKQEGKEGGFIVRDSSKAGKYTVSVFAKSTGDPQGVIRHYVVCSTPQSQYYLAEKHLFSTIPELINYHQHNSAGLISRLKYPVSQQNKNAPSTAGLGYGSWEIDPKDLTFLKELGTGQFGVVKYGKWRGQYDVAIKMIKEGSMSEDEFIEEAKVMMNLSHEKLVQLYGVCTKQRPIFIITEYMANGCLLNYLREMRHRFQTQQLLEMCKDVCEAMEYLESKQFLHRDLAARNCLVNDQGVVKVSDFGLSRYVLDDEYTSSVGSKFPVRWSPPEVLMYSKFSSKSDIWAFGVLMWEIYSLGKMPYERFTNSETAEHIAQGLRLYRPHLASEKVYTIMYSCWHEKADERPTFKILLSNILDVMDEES
Chain of ALK tyrosine kinase receptor (Homo sapiens) (Q9UM73 19-1620 limits assumed): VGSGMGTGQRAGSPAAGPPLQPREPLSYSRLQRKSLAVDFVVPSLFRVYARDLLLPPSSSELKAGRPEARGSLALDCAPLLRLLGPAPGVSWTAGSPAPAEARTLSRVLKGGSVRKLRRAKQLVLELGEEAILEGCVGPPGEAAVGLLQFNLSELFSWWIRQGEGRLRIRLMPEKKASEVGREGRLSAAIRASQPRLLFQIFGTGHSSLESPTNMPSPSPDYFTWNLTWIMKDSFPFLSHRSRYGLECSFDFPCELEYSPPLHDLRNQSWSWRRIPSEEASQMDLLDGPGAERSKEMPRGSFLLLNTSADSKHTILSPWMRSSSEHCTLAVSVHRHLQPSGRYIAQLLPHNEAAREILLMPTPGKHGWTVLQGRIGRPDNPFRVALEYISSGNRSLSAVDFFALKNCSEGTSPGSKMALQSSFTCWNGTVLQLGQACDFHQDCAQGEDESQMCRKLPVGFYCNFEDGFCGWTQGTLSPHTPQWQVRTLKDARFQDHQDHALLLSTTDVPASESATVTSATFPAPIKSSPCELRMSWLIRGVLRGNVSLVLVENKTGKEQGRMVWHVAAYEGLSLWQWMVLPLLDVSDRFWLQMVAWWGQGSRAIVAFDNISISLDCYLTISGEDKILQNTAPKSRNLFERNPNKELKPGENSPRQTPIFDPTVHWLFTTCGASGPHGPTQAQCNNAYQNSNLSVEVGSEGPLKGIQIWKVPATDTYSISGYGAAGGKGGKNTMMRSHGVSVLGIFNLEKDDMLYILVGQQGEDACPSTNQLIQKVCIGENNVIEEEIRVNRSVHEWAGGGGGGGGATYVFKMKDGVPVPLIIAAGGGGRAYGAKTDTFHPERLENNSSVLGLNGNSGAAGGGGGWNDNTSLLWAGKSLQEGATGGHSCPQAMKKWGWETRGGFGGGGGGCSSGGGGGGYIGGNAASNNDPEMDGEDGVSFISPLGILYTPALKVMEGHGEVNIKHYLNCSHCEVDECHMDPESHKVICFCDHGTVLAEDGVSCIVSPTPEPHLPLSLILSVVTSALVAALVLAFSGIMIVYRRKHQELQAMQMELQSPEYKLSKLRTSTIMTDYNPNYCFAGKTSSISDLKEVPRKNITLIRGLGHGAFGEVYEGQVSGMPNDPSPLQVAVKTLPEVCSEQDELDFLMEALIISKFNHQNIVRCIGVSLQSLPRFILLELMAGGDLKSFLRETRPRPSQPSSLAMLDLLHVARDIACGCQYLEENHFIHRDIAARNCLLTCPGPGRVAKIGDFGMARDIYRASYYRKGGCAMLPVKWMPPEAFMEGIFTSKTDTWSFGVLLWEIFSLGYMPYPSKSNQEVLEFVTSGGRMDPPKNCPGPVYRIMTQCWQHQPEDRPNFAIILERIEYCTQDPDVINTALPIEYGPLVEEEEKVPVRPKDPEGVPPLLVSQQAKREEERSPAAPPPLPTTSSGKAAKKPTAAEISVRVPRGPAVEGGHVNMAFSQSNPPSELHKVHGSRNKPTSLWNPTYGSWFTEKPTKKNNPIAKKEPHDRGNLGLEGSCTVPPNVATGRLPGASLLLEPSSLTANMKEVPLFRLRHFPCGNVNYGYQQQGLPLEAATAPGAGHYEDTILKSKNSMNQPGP
Chain of Androgen receptor (Homo sapiens) (P10275 whole entry): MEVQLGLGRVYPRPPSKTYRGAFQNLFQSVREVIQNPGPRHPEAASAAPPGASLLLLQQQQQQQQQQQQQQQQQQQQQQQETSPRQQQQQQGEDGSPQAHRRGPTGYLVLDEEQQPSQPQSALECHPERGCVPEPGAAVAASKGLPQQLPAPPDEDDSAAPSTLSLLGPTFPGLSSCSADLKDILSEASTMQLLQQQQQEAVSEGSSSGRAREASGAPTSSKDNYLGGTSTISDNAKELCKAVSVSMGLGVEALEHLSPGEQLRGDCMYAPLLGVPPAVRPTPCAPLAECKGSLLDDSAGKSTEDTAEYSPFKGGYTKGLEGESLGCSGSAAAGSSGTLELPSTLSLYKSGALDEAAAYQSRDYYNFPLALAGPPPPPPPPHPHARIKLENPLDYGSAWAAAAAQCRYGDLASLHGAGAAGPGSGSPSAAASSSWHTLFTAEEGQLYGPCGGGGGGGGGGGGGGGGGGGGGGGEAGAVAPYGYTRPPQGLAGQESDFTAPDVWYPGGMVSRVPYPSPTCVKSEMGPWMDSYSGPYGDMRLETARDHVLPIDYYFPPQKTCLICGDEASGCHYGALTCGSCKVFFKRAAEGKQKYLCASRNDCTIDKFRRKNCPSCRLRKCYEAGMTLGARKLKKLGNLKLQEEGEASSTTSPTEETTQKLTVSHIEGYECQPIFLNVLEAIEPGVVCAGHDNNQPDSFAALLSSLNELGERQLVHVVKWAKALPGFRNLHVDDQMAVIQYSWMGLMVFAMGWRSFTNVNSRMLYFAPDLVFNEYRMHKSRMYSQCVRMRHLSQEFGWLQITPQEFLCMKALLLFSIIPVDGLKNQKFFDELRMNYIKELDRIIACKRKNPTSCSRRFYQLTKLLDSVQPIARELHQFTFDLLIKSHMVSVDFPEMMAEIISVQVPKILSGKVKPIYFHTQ
Chain of Transcription intermediary factor 1-alpha (O15164 whole entry): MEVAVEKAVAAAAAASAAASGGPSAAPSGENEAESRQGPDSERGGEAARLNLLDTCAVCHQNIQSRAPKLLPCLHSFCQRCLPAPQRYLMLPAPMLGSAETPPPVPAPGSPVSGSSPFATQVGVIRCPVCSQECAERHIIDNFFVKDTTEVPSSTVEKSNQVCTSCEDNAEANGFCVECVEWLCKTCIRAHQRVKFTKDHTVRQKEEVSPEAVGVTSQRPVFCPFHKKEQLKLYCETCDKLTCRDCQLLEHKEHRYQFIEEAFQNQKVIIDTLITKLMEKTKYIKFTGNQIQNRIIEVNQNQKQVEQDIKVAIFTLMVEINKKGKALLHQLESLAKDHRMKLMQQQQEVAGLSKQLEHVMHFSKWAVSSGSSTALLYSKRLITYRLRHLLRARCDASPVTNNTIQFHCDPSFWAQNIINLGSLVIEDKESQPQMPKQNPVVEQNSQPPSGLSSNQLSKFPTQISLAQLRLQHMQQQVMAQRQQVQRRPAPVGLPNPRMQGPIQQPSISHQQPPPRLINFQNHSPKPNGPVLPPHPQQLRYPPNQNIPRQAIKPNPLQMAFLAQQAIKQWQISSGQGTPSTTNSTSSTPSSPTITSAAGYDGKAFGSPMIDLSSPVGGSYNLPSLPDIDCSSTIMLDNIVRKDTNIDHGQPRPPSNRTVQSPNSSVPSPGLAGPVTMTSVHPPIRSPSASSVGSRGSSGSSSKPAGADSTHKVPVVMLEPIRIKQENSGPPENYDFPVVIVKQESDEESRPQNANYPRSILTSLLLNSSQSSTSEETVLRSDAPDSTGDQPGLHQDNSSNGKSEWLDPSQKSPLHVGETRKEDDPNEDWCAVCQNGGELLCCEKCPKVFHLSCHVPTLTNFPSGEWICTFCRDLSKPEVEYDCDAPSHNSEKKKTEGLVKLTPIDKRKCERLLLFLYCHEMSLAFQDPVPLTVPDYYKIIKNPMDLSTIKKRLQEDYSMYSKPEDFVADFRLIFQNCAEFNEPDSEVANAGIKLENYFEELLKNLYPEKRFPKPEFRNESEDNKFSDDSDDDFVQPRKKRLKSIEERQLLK
Chain of Transcription intermediary factor 1-alpha (Homo sapiens) (O15164 whole entry): as above
Chain of E3 ubiquitin-protein ligase Mdm2 (Q00987 whole entry): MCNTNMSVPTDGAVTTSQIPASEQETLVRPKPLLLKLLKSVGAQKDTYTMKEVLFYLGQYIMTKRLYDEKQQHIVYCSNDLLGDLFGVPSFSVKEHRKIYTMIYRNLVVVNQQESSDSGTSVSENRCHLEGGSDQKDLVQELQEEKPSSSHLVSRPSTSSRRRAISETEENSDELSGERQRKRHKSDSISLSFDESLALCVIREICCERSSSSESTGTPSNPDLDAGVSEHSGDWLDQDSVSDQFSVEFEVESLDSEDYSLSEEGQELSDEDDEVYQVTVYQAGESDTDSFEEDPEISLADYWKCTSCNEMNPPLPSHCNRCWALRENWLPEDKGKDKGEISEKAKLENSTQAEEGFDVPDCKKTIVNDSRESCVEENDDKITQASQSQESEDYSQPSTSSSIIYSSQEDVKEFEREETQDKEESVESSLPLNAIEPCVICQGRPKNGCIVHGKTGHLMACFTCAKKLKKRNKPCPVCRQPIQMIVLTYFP

Usually Emax stands for the maximal effect, on the per cent scale that the assay sets. On to `CC1(C)[C@H](NC(=O)c2ccc(OCC(=O)NCCCOCCOCCOCCCN(C(=O)CCl)C(C(=O)NCc3ccccc3)c3ccc(Cl)c(Cl)c3)cc2)C(C)(C)[C@H]1Oc1ccc(C#N)c(Cl)c1` (some centres not stated), for which, in series [1], the Emax was 90%.

The pIC50 is the negative decadic logarithm of the IC50, by convention in mol/L. Read a high pIC50 as a small IC50. As for `COc1ccc(C2=N[C@@H](c3ccc(Cl)cc3)[C@@H](c3ccc(Cl)cc3)N2C(=O)N2CCNC(=O)C2)c(OC(C)C)c1` [NUTLIN-3], the pIC50 was 5.10 in the series on A549 [2] and 5.30 in the series on HCT-116 [3].

For orientation: pKi means −log10 of the Ki, conventionally taken in molar units. The low end stands for a large Ki, the high end for a small Ki. As usually defined, the AUC is the area under the concentration-time curve, a measure of exposure. Low values mean low exposure, high ones high exposure. One may read the half-life as the time in which the quantity being followed falls by half. `CCOc1cc(C(C)(C)C)ccc1C1=N[C@@H](c2ccc(Cl)cc2)[C@@H](c2ccc(Cl)cc2)N1C(=O)N1CCN(CC(=O)NCCOCCOCCOCCNC(=O)CN2CCN(C(=O)N3C(c4ccc(C(C)(C)C)cc4OCC)=N[C@H](c4ccc(Cl)cc4)[C@@H]3c3ccc(Cl)cc3)CC2=O)C(=O)C1` had a pKi in series [4] of 7.05. This molecule also had an AUC in series [5] of 42800 ng·h/mL. Moreover, the inhibition in vivo at 30 mg/kg with A549 [6] stood at 52.4%. Further, the values for the pIC50 in the series with A549 [2], with HCT-116 [8] and in the series with HCT-116 [3] were 6.24, 4.68 and 5.96, respectively. In addition, the half-life in series [7] was 9.6 h.

`Cc1sc2c(c1C)C(c1ccc(Cl)cc1)=N[C@@H](CC(=O)NCCOCCOCCOCC(C)(COCCOCCOCCNC(=O)C[C@@H]1N=C(c3ccc(Cl)cc3)c3c(sc(C)c3C)-n3c(C)nnc31)COC(=O)NCCNc1cccc3c1C(=O)N(C1CCC(=O)NC1=O)C3=O)c1nnc(C)n1-2` (some centres not stated) had a pIC50 in the series on MV4-11 of 7.02.

In the case of `Cc1cc(Nc2ncc(Cl)c(Nc3ccccc3S(=O)(=O)C(C)C)n2)c(OC(C)C)cc1C1CCN(CC(=O)NCCNc2cccc3c2C(=O)N(C2CCC(=O)NC2=O)C3=O)CC1` (configuration not stated), in [9], the Emax is 90%. The same molecule showed a pIC50 with SU-DHL-1 of 7.80.

For the molecule `C[C@H]1[C@H](C)CC[C@]2(C(=O)NCCOCCOCCOCCNc3cccc4c3C(=O)N(C3CCC(=O)NC3=O)C4=O)CC[C@]3(C)C(=CC[C@@H]4[C@@]5(C)CC[C@H](O)C(C)(C)[C@@H]5CC[C@]43C)[C@H]12` (some centres not stated), the figures for the pIC50 in the series on Huh-7, in the series on HepG2 and in the series with A549 [2] were 6.41, 6.42 and 6.64, respectively.

`CCCOc1cccc(Oc2cc3c(cc2NS(=O)(=O)c2cccc(C(=O)NCCOCCOCCOCC(=O)N[C@@H](C(=O)N4C[C@@H](O)C[C@@H]4C(=O)NCc4ccc(-c5scnc5C)cc4)C(C)(C)C)c2)n(C)c(=O)n3C)c1` gave a pIC50 in series [10] of 6.47. Besides, the Emax in [11] was 72%.

As a reminder, the DC50 is the concentration giving 50% degradation. High values mean degradation only at high concentration, low ones degradation at low concentration. In series [12], `CC(C)(/C=C(\C#N)C(=O)N1CCC[C@@H](n2nc(-c3ccc(Oc4ccccc4)cc3)c3c(N)ncnc32)C1)CCCOCCOCCOCCOCCOc1cccc2c1C(=O)N(C1CCC(=O)NC1=O)C2=O` (some centres not stated) showed a DC50 of 6 nM. Moreover, the Emax in series [13] turned out to be 85%.

On to `Cc1cc(Nc2ncc(Cl)c(Nc3ccccc3S(=O)(=O)C(C)C)n2)c(OC(C)C)cc1C1CCN(CCCCC(=O)N[C@H](C(=O)N2C[C@H](OC(=O)CCCCn3cc(CNC(=O)CC[C@H](NC(=O)c4ccc(NCc5cnc6nc(N)[nH]c(=O)c6n5)cc4)C(=O)O)nn3)C[C@H]2C(=O)N[C@@H](C)c2ccc(-c3scnc3C)cc2)C(C)(C)C)CC1`, for which, in series [14], the Emax was found to be 100%. For the same molecule, the pIC50 in the series with SU-DHL-1 was 6.70.

As usually defined, the TGI is how far tumour growth fell short of that in controls. Regarding `Cc1ncsc1-c1ccc(CNC(=O)[C@@H]2C[C@@H](O)CN2C(=O)[C@@H](NC(=O)COCCOCCOCCNC(=O)C[C@@H]2N=C(c3ccc(Cl)cc3)c3c(sc(C)c3C)-n3c(C)nnc32)C(C)(C)C)cc1`, the TGI in the series with MCF7 came out at 59.8%.

Take `CN[C@@H](C)C(=O)N[C@H](C(=O)N1C[C@@H](NC(=O)COCCOCCOCCOCCN2CCN(C/C=C/C(=O)N3CCC[C@@H](n4nc(-c5ccc(Oc6ccccc6)cc5)c5c(N)ncnc54)C3)CC2)C[C@H]1C(=O)N[C@H]1CCCc2ccccc21)C1CCCCC1`: the Emax in [15] is 100%.

By pKd is commonly meant −log10 of the Kd, conventionally taken in molar units. A higher pKd goes with a low Kd. Usually EC99 stands for the concentration needed for an effect of 99%. A lower EC99 goes with an effect from little substance. Molecule `Cc1ncsc1-c1ccc(CNC(=O)[C@@H]2C[C@@H](O)CN2C(=O)[C@@H](NC(=O)COCCOCCOCCOCCOCCOC(=O)N[C@H](C(=O)N2C[C@H](O)C[C@H]2C(=O)NCc2ccc(-c3scnc3C)cc2)C(C)(C)C)C(C)(C)C)cc1` showed a pKd in series [16] of 7.96. In series [17], this molecule came in with a DC50 of less than 100 nM and an EC99 of 10 nM.
